From patent publication US20040048356A1, “Use of a strain of lactobacillus reducing the risk factors involved in the metabolic syndrome” (priority 2000, published 2004)

Assays:
[1] = clinical trial, Zapolska-Downar et al. 2000; cited from earlier work
[2] = test system: PPAR; experiment: Effect of propionic acid on PPAR gene expression in vitro (semiquantitative RT-PCR in HUVEC); type: cell-based; details: PPAR mRNA in human endothelial cells, percent in relation to GAPDH mRNA (100%)
Experimental: Human umbilical vein endothelial cells, HUVEC, were obtained from umbilical cords by collagenase digestion as described by Jaffe et al. (Biology of Endothelial Cells, Boston, Martinus Nijhoff Publishers, 1984, p. 1-13). In brief, veins of umbilical cords were perfused with PBS to remove blood cells, filled with 0.1% collagenase (type Ia) and left for 10 minutes at 37° C. Suspended HUvEC were supplemented with PBS, centrifuged and cultured at 37° C. in gelatine-coated 25 ml flasks and 6-well tissue culture plates filled with medium 199, under humidified 5% CO2 in room air. Propionic acid was added to the culture medium in the amounts of 0.1, 1.0, and 10.0 mmol/l, and the effect of the acid on the expression of PPAR was determined. Total RNA was extracted from the cells by the method of Chomczynski using TRIZOL (Gibco BRL). After isolation the integrity of the RNA samples was checked by gel electrophoresis in 1% agarose gel stained with ethidium bromide. The concentration of total RNA was calculated after spectrophotometric measurements at 260 nm wavelength. Each RNA sample (500 ng) was incubated with 1 U of DNAse I (Boehringer Mannheim, Germany) for 15 minutes at 37° C., and subsequently DNAse I was inactivated by heating at 75° C. for 3 minutes. Such DNAse-treated RNA (500 ng) was dissolved in 20 μl of a reaction mixture containing 2.5 mM of dATP, dTTP, dCTP, and dGTP (Progmega, USA), 20 U of RNAsin (Promega, USA), 100 pM of random hexamers (Boehringer Mannheim, Germany) and 20 U of MMLV Reverse Transcriptase (Boehringer Mannheim). Incubation was carried out at 37° C. for 60 minutes; the temperature of the reaction was then raised to 94° C. for 5 minutes to inactivate the enzyme and finally dropped to 4° C. […] The intensity of the bands was densitometrically measured with the gel analysis macro supplied with NIH Image. All PPAR signals were normalised to mRNA levels of the housekeeping gene GAPDH and expressed as a ratio. Data are expressed as percent in relation to GAPDH mRNA (100%).

| SMILES | HDL cholesterol levels [1] | Increase of mRNA, % ([2]; propionic acid 0.1 mmol/l) | Increase of mRNA, % ([2]; propionic acid 1.0 mmol/l) | Increase of mRNA, % ([2]; propionic acid 10.0 mmol/l) |
| --- | --- | --- | --- | --- |
| CC(C)Cc1ccc(C(C)C(=O)O)cc1 (stereo not shown) [ibuprofen] | increased | – | – | – |
| CCC(=O)O [propionic acid] | – | 29.3% | 47.2% | 89.7% |
